Values quoted from earlier work in patent US20080268043A1, “Controlled Release Compositions Comprising an Antipsychotic Agent” (ELAN PHARMA INTERNATIONAL LIMITED, priority 2005, published 2008).

Conditions: within the proposed clinical dose range

mean terminal half-life: about 6 hours
SMILES: OCCOCCN1CCN(C2=Nc3ccccc3Sc3ccccc32)CC1 [quetiapine]
